This is an account of results in ChEMBL document CHEMBL1155967, “Design, synthesis, and examination of neuron protective properties of alkenylated and amidated dehydro-silybin derivatives” (J Med Chem, 2009).

Series [1] is described as follows: Antioxidant activity assessed as superoxide anion scavenging activity at 50 uM after 5 mins by spectrophotometry. It counts as functional.
In series [2] the test system is Liver. Description: Inhibition of lipid peroxidation in Sprague-Dawley rat liver homogenate assessed as malondialdehyde formation after 1 hr by TBARS assay. It counts as functional, tissue-based.
Series [3] deals with PC-12. Kind of series: Neuroprotective activity against H2O2-induced injury in rat PC12 cells at 12.5 to 50 uM treated 2 hrs before H2O2 challenge measured after 4 hrs by MTT assay. Type of series: functional, cell-based. (In general: Tetrazolium assays rely on reduction of a dye to a coloured formazan, in cell work by metabolically active cells.)
The target of series [4] is T1, Xanthine dehydrogenase/oxidase (Rattus norvegicus, UniProt P22985). Description: Inhibition of rat liver xanthine oxidase at 75 uM after 2 hrs by spectrophotometry. The conditions noted are these: for inhibition (INH): 75 µM.
The nature of series [5]: Iron chelating activity assessed as inhibition of ferrozine-Fe2+ complex formation after 10 mins by spectrophotometry. Type of series: functional.
Series [6] deals with PC-12. Kind of series: Neuroprotective activity against H2O2-induced injury in rat PC12 cells assessed as increase in cell viability at 50 uM treated 2 hrs before H2O2 challenge measured after 4 hrs by MTT assay. Type of series: functional.
Series [7] has as its system PC-12. Description: Neuroprotective activity against H2O2-induced injury in rat PC12 cells treated 2 hrs before H2O2 challenge measured after 4 hrs by MTT assay. Type of series: functional, cell-based.
Series [8] can be described thus: Iron chelating activity assessed as inhibition of ferrozine-Fe2+ complex formation at 150 uM after 10 mins by spectrophotometry. Type of series: functional.
Series [9] addresses T1, Xanthine dehydrogenase/oxidase. Description: Inhibition of rat liver xanthine oxidase after 2 hrs by spectrophotometry.
Series [10] has as its system Radical scavenging activity. Description: Antioxidant activity assessed as DPPH radical scavenging activity at 50 uM after 30 mins by spectrophotometry. It counts as functional.
In series [11] the test system is Radical scavenging activity. Description: Antioxidant activity assessed as DPPH radical scavenging activity after 30 mins by spectrophotometry. Type of series: functional. On the technique in general: DPPH is a stable violet radical that fades when it is reduced.
Series [12] can be described thus: Antioxidant activity assessed as superoxide anion scavenging activity after 5 mins by spectrophotometry. Type of series: functional.
Series [13] in a line: Ratio of quercetin EC50 to compound EC50 for iron chelating activity.
The test system of series [14] is Liver. Kind of series: Ratio of silybin IC50 to compound IC50 for inhibition of lipid peroxidation in Sprague-Dawley rat liver homogenate. It counts as functional, tissue-based.
Series [15] deals with Liver. Kind of series: Ratio of 2,3-dehydrosilybin IC50 to compound IC50 for inhibition of lipid peroxidation in Sprague-Dawley rat liver homogenate. Type of series: functional, tissue-based.
Series [16] concerns Liver. Kind of series: Ratio of quercetin IC50 to compound IC50 for inhibition of lipid peroxidation in Sprague-Dawley rat liver homogenate. It counts as functional, tissue-based.
A short description of series [17]: Ratio of 2,3-dehydrosilybin EC50 to compound EC50 for iron chelating activity. It counts as functional.

Calls of active or inactive are those of the source. The rule behind the calls is not given here.

T1 sequence (P22985 whole entry): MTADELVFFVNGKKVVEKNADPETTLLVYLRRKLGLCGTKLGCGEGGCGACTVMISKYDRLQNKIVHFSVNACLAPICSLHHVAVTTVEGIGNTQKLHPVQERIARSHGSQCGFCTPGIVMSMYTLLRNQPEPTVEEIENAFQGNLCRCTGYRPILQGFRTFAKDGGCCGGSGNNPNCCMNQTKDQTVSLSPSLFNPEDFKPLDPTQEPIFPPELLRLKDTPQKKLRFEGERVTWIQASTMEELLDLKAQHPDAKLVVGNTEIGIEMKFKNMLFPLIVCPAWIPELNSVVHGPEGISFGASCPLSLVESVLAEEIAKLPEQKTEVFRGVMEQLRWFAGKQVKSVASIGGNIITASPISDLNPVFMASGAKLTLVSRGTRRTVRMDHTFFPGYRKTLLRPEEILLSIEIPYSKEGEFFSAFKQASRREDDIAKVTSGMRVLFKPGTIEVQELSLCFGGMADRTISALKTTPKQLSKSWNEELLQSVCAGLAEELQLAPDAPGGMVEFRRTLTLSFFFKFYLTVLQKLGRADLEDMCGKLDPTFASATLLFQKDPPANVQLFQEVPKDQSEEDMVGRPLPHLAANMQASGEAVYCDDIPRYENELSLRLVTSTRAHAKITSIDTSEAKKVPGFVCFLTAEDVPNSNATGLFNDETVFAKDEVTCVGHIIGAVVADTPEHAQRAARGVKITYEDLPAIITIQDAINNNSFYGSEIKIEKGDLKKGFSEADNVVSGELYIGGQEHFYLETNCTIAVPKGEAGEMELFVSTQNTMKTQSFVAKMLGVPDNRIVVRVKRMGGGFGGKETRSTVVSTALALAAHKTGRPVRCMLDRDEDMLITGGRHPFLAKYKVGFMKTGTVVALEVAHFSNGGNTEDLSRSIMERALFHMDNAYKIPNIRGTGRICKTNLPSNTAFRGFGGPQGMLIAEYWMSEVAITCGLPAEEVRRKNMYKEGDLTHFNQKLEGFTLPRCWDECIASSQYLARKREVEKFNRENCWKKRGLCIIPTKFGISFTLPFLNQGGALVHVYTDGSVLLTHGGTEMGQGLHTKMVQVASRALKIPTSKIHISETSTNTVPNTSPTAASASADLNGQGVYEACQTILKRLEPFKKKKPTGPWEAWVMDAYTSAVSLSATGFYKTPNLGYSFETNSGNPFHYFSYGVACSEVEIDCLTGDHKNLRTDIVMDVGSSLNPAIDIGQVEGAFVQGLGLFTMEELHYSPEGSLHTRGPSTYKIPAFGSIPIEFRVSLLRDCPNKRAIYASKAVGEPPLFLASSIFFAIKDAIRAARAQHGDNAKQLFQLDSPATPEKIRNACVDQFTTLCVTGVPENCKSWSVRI

As a reminder, the IC50 is the concentration that inhibits the measured activity by half. In the case of `COc1cc(C2Oc3cc(-c4oc5cc(OCC(=O)Nc6ccc(Cl)cc6Cl)cc(O)c5c(=O)c4O)ccc3OC2CO)ccc1OCC(=O)Nc1ccc(Cl)cc1Cl` (racemic), in series [1], the result was inactive. The IC50 in the series with Liver [2] turned out to be 20.7 µM. Besides, the result in the series on PC-12 [3] was Active. In addition, the “inhibition (INH)” value in [4] was “Active”.

For the molecule `C=CCOc1cc(O)c2c(=O)c(OCC=C)c(-c3ccc4c(c3)OC(c3ccc(OCC=C)c(OC)c3)C(CO)O4)oc2c1` (racemic), in series [1], the outcome was inactive. Also, the IC50 with Liver [2] was 54.8 µM.

In general, EC50 refers to the concentration needed to bring the measured effect to its halfway point. In the case of `C=CCCOc1cc(O)c2c(=O)c(O)c(-c3ccc4c(c3)OC(c3ccc(OCCC=C)c(OC)c3)C(CO)O4)oc2c1` (racemic), the result in series [1] was inactive. The IC50 in the series with Liver [2] worked out at 36.2 µM. Moreover, the EC50 in series [5] was 145 µM; in the series with PC-12 [7], 37.7 µM. The Activity in the series on PC-12 [6] was 40%.

As a reminder, the inhibition is the drop in the measured response relative to a control, in per cent. Consider `CCN(CC)C(=O)COc1cc(O)c2c(=O)c(O)c(-c3ccc4c(c3)OC(c3ccc(OCC(=O)N(CC)CC)c(OC)c3)C(CO)O4)oc2c1` (racemic), for which the outcome in [1] was inactive. Also, the IC50 in the series with Liver [2] turned out to be 5.8 µM. In [8], the inhibition worked out at 63%. For the same molecule, in [5], the concentration giving a half-maximal response (EC50) is 59.9 µM. For the same molecule, the outcome with PC-12 [3] was Active. For the same molecule, the “inhibition (INH)” value in series [4] is “Active”.

`COc1cc(C2Oc3cc(-c4oc5cc(OCC=C(C)C)cc(O)c5c(=O)c4O)ccc3OC2CO)ccc1O` (racemic): the outcome in [1] was Active. The IC50 in the series with Liver [2] stood at 23.3 µM. Besides, in series [8], the inhibition stood at 51%. In addition, the results for the EC50 (in series [5]; in the series with PC-12 [7]) were 137 µM and 32 µM, respectively. Also, the Activity in the series with PC-12 [6] is reported as 40%.

Regarding `COc1cc(C2Oc3cc([C@H]4Oc5cc(O)cc(O)c5C(=O)[C@@H]4O)ccc3OC2CO)ccc1O` (stereo partly specified) [SILIBININ], the IC50 in the series on Liver [2] was 84.8 µM; in series [9], 80.3 µM. Moreover, the “inhibition (INH)” value in [4] was “Not Active”.

As for `CCOC(=O)COc1cc(O)c2c(=O)c(O)c(-c3ccc4c(c3)OC(c3ccc(OCC(=O)OCC)c(OC)c3)C(CO)O4)oc2c1` (racemic), the result in series [1] was inactive. Further, the IC50 in the series on Liver [2] was 36.4 µM; in series [9], 70.8 µM. Moreover, the inhibition in series [8] amounted to 53.5%. Besides, in series [5], the EC50 was determined as 116 µM. Moreover, the inhibition at 75 µM in [4] was > 50%.

For `C=CCOc1cc(O)c2c(=O)c(O)c(-c3ccc4c(c3)OC(c3ccc(OCC=C)c(OC)c3)C(CO)O4)oc2c1` (racemic), the outcome in [1] was inactive. For the same molecule, the concentration for half-maximal inhibition (IC50) in the series with Liver [2] came to 22.6 µM. Moreover, in series [8], the inhibition worked out at 72.5%. The EC50 in series [5] was determined as 129 µM; in the series with PC-12 [7], 20.5 µM. Further, the Activity in the series on PC-12 [6] amounted to 40%.

Regarding `COc1cc(C2Oc3cc(-c4oc5cc(OCC=C(C)C)cc(O)c5c(=O)c4O)ccc3OC2CO)ccc1OCC=C(C)C` (racemic), in series [1], the result was inactive. In addition, the IC50 in the series on Liver [2] worked out at 28.1 µM. Besides, the EC50 in series [5] is 138 µM; with PC-12 [7], 47.4 µM. Besides, the Activity with PC-12 [6] came to 40%. Also, 75 µM produced 18.9% inhibition in series [4].

Regarding `O=C1O[C@H]([C@@H](O)CO)C(O)=C1O`, the inhibition in series [10] stood at 12.6%.

Take `COc1ccc(C(=O)OCC2Oc3ccc(-c4oc5cc(O)cc(O)c5c(=O)c4O)cc3OC2c2ccc(O)c(OC)c2)cc1` (racemic): the result in series [1] was inactive. Besides, the IC50 in the series with Liver [2] came to 104 µM.

On to `CCN(CC)C(=O)COc1cc(O)c2c(=O)c(O)c(-c3ccc4c(c3)OC(c3ccc(O)c(OC)c3)C(CO)O4)oc2c1` (racemic), for which the inhibition in series [10] stood at 46.4%; in series [8], 52.5%. Also, the outcome in series [1] was Active. Moreover, the IC50 in the series with Liver [2] turned out to be 0.7 µM. Moreover, the half-maximal effective concentration (EC50) in series [5] turned out to be 113 µM. The “inhibition (INH)” value in [4] is “Active”.

For `O=c1c(O)c(-c2ccc(O)c(O)c2)oc2cc(O)cc(O)c12` [QUERCETIN], the EC50 amounted to 3.4 µM in series [11], 38.6 µM in [12], 188 µM in series [5] and 58.4 µM in the series on PC-12 [7]. Besides, the IC50 in the series on Liver [2] turned out to be 4.6 µM. The inhibition in series [8] turned out to be 43.5%.

In the case of `COc1cc(C2Oc3cc(-c4oc5cc(O)cc(O)c5c(=O)c4O)ccc3OC2CO)ccc1O` (stereo unspecified) [DEHYDROSILYLBIN], the inhibition was determined as 42.2% in series [10] and 58% in [8]. Also, the results for the IC50 (in the series with Liver [2]; in series [9]) were 10.7 µM and 80.3 µM, respectively. The EC50 in series [5] amounted to 118 µM; with PC-12 [7] it was 30.2 µM. In addition, the Activity in the series on PC-12 [6] turned out to be 40%.

Regarding `COc1ccc(NC(=O)COc2cc(O)c3c(=O)c(O)c(-c4ccc5c(c4)OC(c4ccc(OCC(=O)Nc6ccc(OC)cc6)c(OC)c4)C(CO)O5)oc3c2)cc1` (racemic), in series [1], the result was inactive. For the same molecule, the IC50 in the series with Liver [2] was 37 µM. Moreover, the result in the series with PC-12 [3] was Active. For the same molecule, the “inhibition (INH)” value in [4] is given as “Active”.

Molecule `Oc1ncnc2[nH]ncc12` [ALLOPURINOL] returned a half-inhibitory concentration (IC50) in series [9] of 21.2 µM.

As to `C=CCCOc1cc(O)c2c(=O)c(OCCC=C)c(-c3ccc4c(c3)OC(c3ccc(OCCC=C)c(OC)c3)C(CO)O4)oc2c1` (racemic), the outcome in series [1] was inactive. In addition, the half-inhibitory concentration (IC50) with Liver [2] was 67.5 µM. Moreover, the Activity in the series with PC-12 [6] amounted to 40%. This molecule also had an EC50 in the series with PC-12 [7] of 79.4 µM.

Turning to `COc1cc(C2Oc3cc(-c4oc5cc(OCC(=O)Nc6ccc(Cl)cc6)cc(O)c5c(=O)c4O)ccc3OC2CO)ccc1OCC(=O)Nc1ccc(Cl)cc1` (racemic), in [1], the result was inactive. The IC50 in the series on Liver [2] was 153 µM. The outcome in the series on PC-12 [3] was Active. Besides, the “inhibition (INH)” value in [4] is “Active”.

With `COc1cc(C2Oc3cc(-c4oc5cc(O)cc(O)c5c(=O)c4O)ccc3OC2COC(=O)c2cccc(Cl)c2)ccc1O` (racemic), the outcome in series [1] was inactive. The IC50 with Liver [2] amounted to 16.9 µM. Besides, the Activity in the series with PC-12 [6] worked out at 40%. The same molecule showed an EC50 in the series with PC-12 [7] of 46.5 µM.

For the molecule `COc1cc(C2Oc3cc(-c4oc5cc(OCC(=O)Nc6ccc(C)cc6)cc(O)c5c(=O)c4O)ccc3OC2CO)ccc1OCC(=O)Nc1ccc(C)cc1` (racemic), the result in [1] was inactive. The IC50 in the series with Liver [2] was determined as 74.1 µM. In the series on PC-12 [3], the result was Active. Also, the “inhibition (INH)” value in series [4] is recorded as “Active”.

As to `O=C([O-])CN(CCN(CC(=O)[O-])CC(=O)O)CC(=O)O.[Na+].[Na+]` [EDETATE DISODIUM ANHYDROUS], the inhibition in series [8] was 91.5%. The EC50 in series [5] amounted to 16.4 µM.

Regarding `COc1cc(C2Oc3cc(-c4oc5cc(OCC(=O)N6CCCC6)cc(O)c5c(=O)c4O)ccc3OC2CO)ccc1OCC(=O)N1CCCC1` (racemic), the Ratio EC50 in series [13] amounted to 7; in series [17], 4. Moreover, the inhibition came out at 44.2% in series [10] and 87% in series [8]. In addition, the result in series [1] was inactive. In addition, the half-inhibitory concentration (IC50) with Liver [2] turned out to be 0.9 µM. For the same molecule, the values for the Ratio IC50 in the series with Liver [14], with Liver [15] and in the series on Liver [16] were 93, 11 and 5, respectively. For the same molecule, the EC50 in series [5] amounted to 23.2 µM. The outcome in the series with PC-12 [3] was Active. Also, the “inhibition (INH)” value in [4] was “Active”.
